In BindingDB's records for doi:10.1021/jm00079a011 (Kanebo, 1992):

Molecular target: DNA gyrase (Escherichia coli)
Assay: The inhibitory activity was measured for the supercoiling activity of DNA gyrase isolated from Escherichia coli K-12 C600.

| IC50 | SMILES |
| --- | --- |
| 666 nM | NC1CCN(c2c(F)cc3c(=O)c(C(=O)O)c4scc5n4c3c2OC5)C1 (stereo unspecified) |
| 2580 nM | O=C(O)c1c(=O)c2cc(F)c(N3CCCC3)c3c2n2c(csc12)CO3 |
| 929 nM | O=C(O)c1c(=O)c2cc(F)c(N3CCC(O)C3)c3c2n2c(csc12)CO3 (stereo unspecified) |
| 727 nM | CN1CCN(c2c(F)cc3c(=O)c(C(=O)O)c4scc5n4c3c2OC5)CC1 |

| SMILES | IC50 |
| --- | --- |
| O=C(O)c1c(=O)c2cc(F)c(N3CCNCC3)c3c2n2c(csc12)CO3 | 452 nM |
| CC1COc2c(N3CCNCC3)c(F)cc3c(=O)c(C(=O)O)cn1c23 (stereo unspecified) | 1690 nM |
